Reference: paper PMC4110071, “DevR (DosR) mimetic peptides impair transcriptional regulation and survival of Mycobacterium tuberculosis under hypoxia by inhibiting the autokinase activity of DevS sensor kinase” (BMC Microbiology, 2014)
Where two headings read alike, the source gives them in different places.

Tests used:
[1] = system: DevS201 (cytoplasmic domain of DevS sensor kinase); assay: DevS201 autokinase (autophosphorylation) assay, high-throughput filtration format; assay type: biochemical, Mycobacterium tuberculosis; conditions: for % Inhibition of autokinase activity: mean of three independent experiments, 0 = lack of inhibition; for inhibition of DevS autokinase activity (in words): Pep peptides at 3 mM and 5 mM, preincubated with DevS201 (15 μM) 30 mins at 25°C, three independent experiments, poor reproducibility due to protein aggregation
[2] = system: M. tb H37Rv; assay: REMA, aerobic Resazurin reduction assay; assay type: cell-based, Mycobacterium tuberculosis; conditions: 64 h at 37°C, Resazurin fluorescence, two independent experiments
[3] = system: sigA promoter (not regulated by DevR); assay type: cell-based, Mycobacterium tuberculosis; conditions: for % Inhibition of reporter activity, sigA promoter: peptide 5 mM, 0 = no detectable inhibition
[4] = system: DevS ~ P to DevR phosphotransfer; assay: In vitro phosphotransfer assay from DevS~P to DevR; assay type: biochemical, Mycobacterium tuberculosis; conditions: data not shown
Experimental: To study the phosphotransfer reaction, DevS201 (15 μM final concentration) was phosphorylated for 60 mins as described above. Subsequently, full-length DevR or DevRN protein (1–144 amino acid residues, 20 μM final concentration) was added to the phosphorylated DevS201 mix, and the reaction was incubated at 25°C for 2 mins. The reaction was terminated with 10 μl of 2X stop buffer (100 mM Tris-Cl, pH 6.8, 20% glycerol, 2% SDS, 280 mM β-mercaptoethanol, 0.01% bromophenol blue) and the samples were resolved on SDS-PAGE. The gel was rinsed in water and subjected to autoradiography.

[5] = system: M. tuberculosis; assay type: cell-based, Mycobacterium tuberculosis; conditions: aerobic cultures; with respect to the DMSO control; two independent experiments
[6] = system: HepG2 (human liver hepatocellular carcinoma); assay type: cell-based; conditions: HepG2 cells; MTT; 5 mM and 2.5 mM peptide; 48 h; relative to the DMSO vehicle control; duplicate values
Experimental: (§1) Figure 6 Cytotoxicity of peptides. Percentage cytotoxicity due to exposure to peptides was assessed in HepG2 and CHO cell lines using the MTT assay. The cells were exposed to DevRS A-ext and DevRS D peptides at 2.5 mM and 5 mM concentration in 96-well plate format for 48 h. Percentage cytotoxicity is shown with respect to the DMSO control as mean ± SD for duplicate values.
(§2) The cytotoxicity of DevRS1 peptide was assessed in CHO (Chinese hamster ovary cells) and HepG2 (human liver hepatocellular carcinoma) cell lines. Both the cell lines were maintained in DMEM supplemented with 10% FBS at 37°C in 5% CO2. Approximately, 10^4 cells were seeded per well in a 96-well plate and incubated at 37 °C for 12–16 h. The peptides were diluted in 125 μl DMEM and added onto cells (final volume 250 μl per well, 2.5 and 5 mM final peptide concentrations), and the plate was incubated at 37°C in 5% CO2 for 48 h. Subsequently, 20 μl of MTT (Sigma 5 μg μl^-1) was added and incubated for 4–5 h at 37°C. Following incubation, media was discarded and the formazan crystals were solubilized by adding 200 μl DMSO and the absorbance measured at A560 nm. The percentage toxicity was calculated as: […]

[7] = system: CHO (Chinese hamster ovary cells); assay type: cell-based; conditions: MTT, 5 mM and 2.5 mM peptide, 48 h, relative to the DMSO vehicle control, duplicate values
Experimental: as §1, §2

[8] = system: Rv3134c promoter (DevR-dependent); assay type: cell-based, Mycobacterium tuberculosis; conditions: for inhibition of Rv3134c promoter activity: peptides at 2.5 and 5 mM, two independent experiments; for % Inhibition of reporter activity, Rv3134c promoter: hypoxic, mean of two independent experiments

## SLFRDWP [Pep C]
[1]; Pep peptide 5 mM
  % Inhibition of autokinase activity: 0%
[1]; then ATP 1 h
  inhibition of DevS autokinase activity (in words): did not inhibit autokinase activity at any of the concentrations tested
[1]; peptide 3 mM
  % Inhibition of autokinase activity: 0%

## TFESYSL [Pep B]
[1]; then ATP 1 h
  inhibition of DevS autokinase activity (in words): inhibit DevS autokinase activity to varying degrees

## VRLPD [DevRS D, DevR mimetic peptide VRLPD]
[2]
  inhibition of viability, REMA: ≤ 15%
[3]
  inhibition of sigA promoter activity (in words): did not inhibit sigA promoter activity
[4]
  inhibition of phosphosignal transfer from DevS ~ P to DevR (in words): neither DevRS A-ext nor DevRS D inhibited this reaction
[5]
  CFU: % Inhibition of Viability: ≤ 10%
[6]
  Percentage cytotoxicity: 20-40%
[7]
  Percentage cytotoxicity: 20-40%
[8]; […]
  inhibition of Rv3134c promoter activity: 20-30%
[8]; hypoxic conditions
  inhibition of Rv3134c promoter activity: ~40%
[1]; DevRS peptide 5 mM, preincubated with DevS201 30 mins at 25°C, then ATP 1 h, mean of two independent experiments
  inhibition of DevS autokinase activity: 37%

## KDIKGME [DevRS A, DevR mimetic peptide KDIKGME]
[3]; aerobic
  % Inhibition of reporter activity, sigA promoter: 6%
[3]; hypoxic
  % Inhibition of reporter activity, sigA promoter: ~ 14%
[8]; peptide 2.5 mM
  % Inhibition of reporter activity, Rv3134c promoter: 30%
[8]; peptide 5 mM
  % Inhibition of reporter activity, Rv3134c promoter: ~ 45%

## ITNPDPY [Pep D]
[1]; then ATP 1 h
  inhibition of DevS autokinase activity (in words): inhibit DevS autokinase activity to varying degrees

## HNTRGEE [Pep A]
[1]; then ATP 1 h
  inhibition of DevS autokinase activity (in words): inhibit DevS autokinase activity to varying degrees
